How the values were obtained:
Assay type in all cases: cell-based
[1] = target: T1, BaF3 TELJAK2 cells (BafT_J2) (Homo sapiens, UniProt O60674); assay: Cellular screening, BaF3 TEL:JAK2 cells, Alamar Blue; settings: 40 hr, read-out: BafT_J2 IC50_nM
T1 construct: fused on or other part: TEL (ETV6) N-terminal part, coding nucleotides 1-487, serves as the oligomerising partner; It is fused through a Sal I site to the JAK2 kinase domain and expressed from pTRE2 in BaF3 cells bearing pTET-off; P41212 (Transcription factor ETV6)
How it was run: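 Tet-off BaF3 cells carrying a TEL (nt 1-487)–JAK2 kinase-domain fusion, grown factor-independently in DMEM with 10% Tet-approved FBS without WEHI 3B medium. Compounds were diluted to 20 μM in screening plates, and cells (50,000–200,000 cell/mL at 1.1×) were incubated 40 hr at 37 °C, 5% CO2. Alamar Blue was then added for 4-6 hours; read at 544 nm.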

[2] = target: T2, BaF3 TELJAK3 cells (Homo sapiens, UniProt P52333); assay: Cellular screening, BaF3 TEL:JAK3 cells, Alamar Blue; settings: 40 hr, read-out: BafT_J3 IC50_nM
T2 construct: fused on or other part: TEL (ETV6) N-terminal part, coding nucleotides 1-487, serves as the oligomerising partner; It is fused through a Sal I site to the JAK3 kinase domain and expressed from pTRE2 in BaF3 cells bearing pTET-off; P41212 (Transcription factor ETV6)
T2 sequence (P52333 1-1124): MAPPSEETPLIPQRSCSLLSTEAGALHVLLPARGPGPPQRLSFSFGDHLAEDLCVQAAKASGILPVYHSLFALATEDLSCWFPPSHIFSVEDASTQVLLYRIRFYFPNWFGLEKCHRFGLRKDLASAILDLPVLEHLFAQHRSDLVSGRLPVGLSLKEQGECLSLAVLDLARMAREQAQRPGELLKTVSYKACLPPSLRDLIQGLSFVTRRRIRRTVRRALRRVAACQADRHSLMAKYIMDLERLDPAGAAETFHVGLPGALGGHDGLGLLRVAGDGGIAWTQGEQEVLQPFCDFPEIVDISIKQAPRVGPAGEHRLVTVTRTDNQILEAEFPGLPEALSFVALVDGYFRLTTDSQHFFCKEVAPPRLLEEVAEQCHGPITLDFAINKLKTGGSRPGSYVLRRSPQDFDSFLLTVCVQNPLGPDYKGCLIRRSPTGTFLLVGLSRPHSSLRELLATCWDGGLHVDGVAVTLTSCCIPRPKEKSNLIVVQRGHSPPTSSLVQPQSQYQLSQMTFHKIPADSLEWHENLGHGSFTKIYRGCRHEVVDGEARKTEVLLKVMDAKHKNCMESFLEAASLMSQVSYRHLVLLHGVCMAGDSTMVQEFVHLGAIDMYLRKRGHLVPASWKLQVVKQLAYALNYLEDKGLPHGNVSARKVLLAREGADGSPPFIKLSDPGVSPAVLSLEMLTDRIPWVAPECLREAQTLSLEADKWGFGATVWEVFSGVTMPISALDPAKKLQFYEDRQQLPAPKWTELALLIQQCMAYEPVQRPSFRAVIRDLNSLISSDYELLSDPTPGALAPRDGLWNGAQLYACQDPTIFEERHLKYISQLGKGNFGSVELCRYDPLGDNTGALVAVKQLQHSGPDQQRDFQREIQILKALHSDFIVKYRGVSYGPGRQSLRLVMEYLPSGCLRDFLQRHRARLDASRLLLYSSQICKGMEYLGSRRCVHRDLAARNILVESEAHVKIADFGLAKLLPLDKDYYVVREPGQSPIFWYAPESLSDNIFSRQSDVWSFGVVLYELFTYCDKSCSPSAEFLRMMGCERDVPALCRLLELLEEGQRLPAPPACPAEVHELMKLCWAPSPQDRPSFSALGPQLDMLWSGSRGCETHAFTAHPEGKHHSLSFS
How it was run: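 Alamar Blue signal at 544 nm, developed for 4–6 h, measured viability after 40 h of compound treatment at 37 °C, 5% CO2. Cells were growth-factor-independent BaF3 lines transfected with a TEL/JAK3 kinase-domain fusion under tet-off control. They were cultured in DMEM, 10% Tet-approved FBS, lacking WEHI 3B conditioned medium.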

[3] = system: BaF3 wild-type cells; assay: Cellular screening, BaF3 wild-type cells, Alamar Blue; settings: Mus musculus, 40 hr, read-out: BAF3wt IC50_nM
How it was run: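 Compounds, screened from dilution plates at 20 μM, were added as 10× final stocks to cells grown in DMEM/10% FCS/10% WEHI 3B conditioned medium. Cells were seeded at 1.1× final (50,000–200,000 cells/mL) and incubated 40 hr at 37° C, 5% CO2. Viability was read at 544 nm after a further 4–6 hours with Alamar Blue.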

T1 sequence (O60674 whole entry, change not shown, the tested form may be a part): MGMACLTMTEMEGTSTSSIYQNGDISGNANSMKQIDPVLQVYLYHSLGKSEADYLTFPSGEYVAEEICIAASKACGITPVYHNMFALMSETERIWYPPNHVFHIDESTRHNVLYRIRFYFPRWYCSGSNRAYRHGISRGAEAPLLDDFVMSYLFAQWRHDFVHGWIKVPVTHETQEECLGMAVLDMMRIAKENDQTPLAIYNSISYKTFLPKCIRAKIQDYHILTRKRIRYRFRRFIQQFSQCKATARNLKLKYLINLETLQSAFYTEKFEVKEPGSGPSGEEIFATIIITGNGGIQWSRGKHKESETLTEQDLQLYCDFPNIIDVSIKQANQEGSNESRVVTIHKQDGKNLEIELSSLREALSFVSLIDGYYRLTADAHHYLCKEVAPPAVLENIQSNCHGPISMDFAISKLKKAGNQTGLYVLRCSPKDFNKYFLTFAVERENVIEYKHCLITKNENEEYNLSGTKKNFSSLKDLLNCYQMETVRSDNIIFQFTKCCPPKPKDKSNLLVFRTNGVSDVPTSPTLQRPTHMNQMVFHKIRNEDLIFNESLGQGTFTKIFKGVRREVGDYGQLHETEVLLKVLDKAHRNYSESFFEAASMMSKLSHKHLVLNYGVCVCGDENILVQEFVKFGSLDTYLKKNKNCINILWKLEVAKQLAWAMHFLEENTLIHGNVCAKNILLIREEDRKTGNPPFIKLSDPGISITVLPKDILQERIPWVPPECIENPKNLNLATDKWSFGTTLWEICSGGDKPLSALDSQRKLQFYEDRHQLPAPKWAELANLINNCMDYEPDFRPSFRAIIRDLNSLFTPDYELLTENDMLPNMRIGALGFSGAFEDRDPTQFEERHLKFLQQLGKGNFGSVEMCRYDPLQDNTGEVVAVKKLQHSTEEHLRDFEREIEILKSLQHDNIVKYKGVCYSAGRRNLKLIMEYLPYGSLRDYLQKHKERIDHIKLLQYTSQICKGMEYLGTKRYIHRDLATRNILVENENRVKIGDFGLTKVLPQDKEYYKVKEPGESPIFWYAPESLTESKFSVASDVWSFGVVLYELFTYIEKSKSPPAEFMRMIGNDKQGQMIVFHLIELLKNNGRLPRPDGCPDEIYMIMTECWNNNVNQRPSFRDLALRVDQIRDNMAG

Cc1cnc(Nc2ccc(N3CCOCC3)cc2)nc1Sc1ccc(NC(=O)CO)cc1 [Compound 229, 2-hydroxy-N-(4-(5-methyl-2-(4-morpholinophenylao)pyrimidin-4-ylthio)phenyl)acetamide]
< 20 µM: GI50 [1] | GI50 [2] | IC50 [3]
